According to patent US6620936B2, “9-aminoacridine derivatives and process for the preparation thereof” (Samjin Pharmaceutical Co., Ltd., priority 1998, dated 2003):
Values after ≈ are worked out from the molar mass of the structure shown.

Tests used:
HCT-15 (human colon) = assay: In vitro antitumor effect against human tumor cell lines, SRB assay; format: cell-based; details: 48 hours, HCT 15 cells
Procedure: (§1) In vitro antitumor effect against human tumor cell lines.
(§2) a. Human solid tumor cell lines, A549(non-small lung cell), SKMEL-2(melanoma), HCT-15(colon), SKOV-3(ovarian) and XF-498(CNS) were cultured in 5% CO2, incubators using the RPMI 1640 media containing 10% FBS at 37° C., while with transfer-culturing successively once or twice per week. Cell cultures were dissolved in a solution of 0.25% trysin and 3 mmol CDTA PBS(−) to separate the cells sticked on the culture media.
(§3) b. 5×10^3˜2×10^4 cells were added into each well of 96-well plate and cultured in 5% CO2, incubator at 37° C. for 24 hours.
(§4) c. Each sample drug was dissolved in a little DMSO and diluted with the used medium to a prescribed concentration for experiment, while the final concentration of DMSO was adjusted below 0.5%.
(§5) d. Medium of each well cultured for 24 hours as above b. was removed by aspiration. Each 200 μl of drug samples prepared in c. was added into each well and tine wells were cultured for 48 hours. Tz (time zero) plates were collected at the point of time drugs were added.
(§6) e. According to the SRB assay method, cell fixing with TCA, staining with 0.4% SRB solution, washing with 1% acetic acid and elution of dye with 10 mmol Tris solution were carried out on Tz plates and culture-ended plates, and then, OD values were measured at 520 nm.
(§7) a. Time zero (Tz) value was determined with measuring the SRB protein value at the point of time drugs were added.
(§8) b. Control value (C) was determined with the OD value of an well untreated with drug.
(§9) c. Drug-treated test value (T) was determined with the OD value of drug-treated well.
(§10) d. Effects of drugs were estimated with growth stimulation, net growth inhibition and net killing calculated from Tz, C and T values.
(§11) e. If T≧Tz, cellular response function was calculated by 100×(T−Tz)/(C−Tz), and, if T≦Tz, by 100×(T−Tz)/Tz.

SKOV-3 (human ovarian) = assay: as above; format: cell-based; details: 48 hours, SK-OV-3 cells
Procedure: as §1, §2, §3, §4, §5, §6, §7, §8, §9, §10, §11

XF-498 (human CNS) = assay: as above; format: cell-based; details: 48 hours, XF-498 cells
Procedure: as §1, §2, §3, §4, §5, §6, §7, §8, §9, §10, §11

Topoisomerase II = assay: Inhibition effects against the Topoisomerase II activities (DNA relaxation assay, DNA cleavage assay); format: biochemical; details: supercoiled pBR322 DNA substrate, 30 minutes at 37° C.
Procedure: Inhibition effects against the Topoisomerase II activities
The present compounds were tested for inhibition of Topoisomerase II activity by means of the relaxation assay using supercoiled pBR322 DNA as the substrate. Topo II and a sample inhibitor were added to a reaction system (50 mmol Tris-HCl, pH 7.5, 50 mmol KCl, 20 mmol MgCl2, 0.5 mmol EDTA, 2 mmol ATP, 60 μg/ml BSA) containing supercoiled pBR322 DNA and reacted for 30 minutes at 37° C. Then, a quarter by volume of Stop buffer (5% SDS, 50 mmol EDTA, 30% glycerol, 0.1 mg/ml xylene cyanol, 0.1 mg/ml BPB) was added to the reaction system to stop the reaction. The resulting product went through electrophoresis on 0.7% agarose gel and was stained by ethidium bromide solution. Mobility of DNA was measured under ultraviolet rays.
Topo II and a sample inhibitor were added to cleavage buffer (30 mmol Tris-HCl, pH 7.5, 60 mmol KCl, 10 mmol MgCl2, 15 mmol β-mercaptoethanol, 30 μg /ml BSA) containing supercoiled pBR322 DNA and allowed to react for 30 minutes at 37° C. Then, […] by 1% was added to the reaction system to stop the reaction. Then, proteinase K was added thereto up to the concentration of 50 μg/ml and allowed to react for 30 minutes at 56° C. The reaction product was treated with phenol/chloroform to purify DNA, and the obtained DNA was loaded on agarose gel electrophoresis, transferred to nitrocellulose membrane and hybridized with probe DNA labelled with radioisotope. Then, the nitrocellulose membrane was covered with an X-ray film and exposed to be sensitized and developed, whereby the degree of cleavage of DNA was measured.

[1] = test system: A549 (human non-small lung cell); assay: In vitro antitumor effect against human tumor cell lines, SRB assay; format: cell-based; details: 48 hours, A549 cells
Procedure: as §1
A. Tumor cell lines : A549 (human non-small lung cell)
as §2, §3, §4, §5, §6, §7, §8, §9, §10, §11

SKMEL-2 (human melanoma) = assay: as above; format: cell-based; details: 48 hours, SK-MEL-2 cells
Procedure: as §1, §2, §3, §4, §5, §6, §7, §8, §9, §10, §11

[2] = test system: P388 (mouse lymphoid neoplasma cell); assay: In vitro antitumor effects against animal leukemia cells, dye exclusion assay; format: cell-based; details: 48 hours, trypan blue dye exclusion, read-out: P388, concentration showing 50% cell growth inhibition (IC50)
Procedure: In vitro antitumor effects against animal leukemia cells.
Tumor cell lines: P388 (mouse lymphoid neoplasma cell)
B. Method: Dye Exclusion Assay.
1) The concentration of P388 cells being cultured in RPMI 1640 media containing 10% FBS was adjusted to 1×10^6 cells/ml.
2) Each sample drug of a concentration diluted in the ratio of log dose was added into cell culture media and cultured at 37° C. for 48 hours in […] incubator, and then viable cell number was measured by dye exclusion test using trypan blue.

[3] = Acute toxicity test (LD50), Litchfield-Wilcoxon method; details: mouse, in vivo, ip; male ICR mice, observed 14 days
Procedure: Acute Toxicity Test (LD50):
a) Method: Litchfield-Wilcoxon Method.
6-week-old ICR mice(male 30±2.0 g) were fed freely with solid feed and water at room temperature, 23±1° C. and at humidity 60±5%. Sample drugs were injected into the abdominal cavities of mice. Each group comprised 6 mice. Observed during 14 days, external appearances and life or death thereof were recorded, and also, visible lesions were observed from dead mice by dissection. LD50 value was calculated by Litchfield-wilcoxon method.

| Compound | ED50 HCT 15 (HCT-15 (human colon)) [µg/mL] | ED50 SK-OV-3 (SKOV-3 (human ovarian)) [µg/mL] | ED50 XF-498 (XF-498 (human CNS)) [µg/mL] | IC50 (μg/ml), inhibition of Topoisomerase II activity (Topoisomerase II) [µg/mL] | ED50 A 549 [1] [µg/mL] | ED50 SK-MEL-2 (SKMEL-2 (human melanoma)) [µg/mL] | IC50 [2] [µg/mL] | LD50 at 14 days [3] [mg/kg] |
| --- | --- | --- | --- | --- | --- | --- | --- | --- |
| COc1cccc(NC(=O)OCc2cc(N)cc(Nc3c4ccccc4nc4ccccc34)c2)c1 [Example 2, [3-(acridin-9-yl)amino-5-amino]benzyl N-(3-methoxyphenyl)carbamate] | 0.97 (≈ 2.09 µM) | 0.68 (≈ 1.46 µM) | 0.71 (≈ 1.53 µM) | 3 |  |  |  |  |
| N[C@@H](Cc1ccccc1)C(=O)Nc1cc(CO)cc(Nc2c3ccccc3nc3ccccc23)c1 [Example 46, N-[3-(acridin-9-yl)amino-5-(hydroxymethyl)phenyl](2S)-2-amino-3-phenylpropaneamide] |  |  |  | 3 |  |  |  |  |
| N.N.[Cl][Pt][Cl] [Cisplatin, reference compound] | 3.03 | 0.71 | 0.77 |  | 0.81 | 0.71 |  |  |
| Nc1cc(COC(=O)Nc2ccccc2)cc(Nc2c3ccccc3nc3ccccc23)c1 [Example 1, [3-(acridin-9-yl)amino-5-amino]benzyl N-phenylcarbamate] | 0.57 (≈ 1.31 µM) | 1.15 (≈ 2.65 µM) | 0.44 (≈ 1.01 µM) | 1 | 0.96 (≈ 2.21 µM) | 0.49 (≈ 1.13 µM) | 0.9 (≈ 2.07 µM) |  |
| COc1cccc(NC(=O)OCc2cccc(Nc3c4ccccc4nc4ccccc34)c2)c1 [Example 20, 3-(acridin-9-yl)aminobenzyl N-(3-methoxyphenyl) carbamate] |  |  |  | 3 |  |  |  |  |
| C[C@H](N)C(=O)Nc1cc(CO)cc(Nc2c3ccccc3nc3ccccc23)c1 [Example 45, N-[3-(acridin-9-yl)amino-5-(hydroxymethyl)phenyl](2S)-2-aminopropaneamide] | 0.86 (≈ 2.23 µM) | 0.21 (≈ 0.543 µM) | 0.88 (≈ 2.28 µM) | 0.5 | 0.01 (≈ 0.0259 µM) | 0.25 (≈ 0.647 µM) |  |  |
| COc1cc(NC(=O)OCc2cccc(Nc3c4ccccc4nc4ccccc34)c2)cc(OC)c1 [Example 21, 3-(acridin-9-yl)aminobenzyl N-(3,5-dimethoxyphenyl) carbamate] |  |  |  | 3 |  |  |  |  |
| CC=Nc1cc(CO)cc(Nc2c3ccccc3nc3ccccc23)c1 [Example 35, 3-(acridin-9-yl)amino-5-(ethylideneamino)phenylmethanol] |  |  |  | 5 |  |  |  |  |
| Cc1cc(C)cc(NC(=O)OCc2cc(N)cc(Nc3c4ccccc4nc4ccccc34)c2)c1 [Example 6, [3-(acridin-9-yl)amino-5-amino]benzyl N-(3,5-dimethylphenyl) carbamate] | 0.33 (≈ 0.713 µM) | 0.36 (≈ 0.778 µM) | 0.37 (≈ 0.8 µM) | 3 | 0.72 (≈ 1.56 µM) | 0.40 (≈ 0.865 µM) | 0.8 (≈ 1.73 µM) |  |
| Nc1cc(COC(=O)Nc2cccc(Cl)c2)cc(Nc2c3ccccc3nc3ccccc23)c1 [Example 14, [3-(acridin-9-yl)amino-5-amino]benzyl N-(3-chlorophenyl) carbamate] |  |  |  | 1 |  |  |  |  |
| COc1cc(NC(=O)OCc2cccc(Nc3c4ccccc4nc4ccccc34)c2)cc(OC)c1OC [Example 22, 3-(acridin-9-yl)aminobenzyl N-(3,4,5-trimethoxyphenyl) carbamate] |  |  |  | 5 |  |  |  |  |
| Nc1cc(COC(=O)Nc2cc(F)cc(F)c2)cc(Nc2c3ccccc3nc3ccccc23)c1 [Example 12, [3-(acridin-9-yl)amino-5-amino]benzyl N-(3,5-difluorophenyl) carbamate] |  |  |  | 0.5 |  |  | 1.2 (≈ 2.55 µM) | 150 |
| COc1cc(NC(=S)OCc2cc(N)cc(Nc3c4ccccc4nc4ccccc34)c2)cc(OC)c1OC [Example 19, [3-(acridin-9-yl)amino-5-amino]benzyl N-(3,4,5-trimethoxyphenyl)thiocarbamate] |  |  |  | 5 |  |  |  |  |
| CCCC=Nc1cc(CO)cc(Nc2c3ccccc3nc3ccccc23)c1 [Example 37, 3-(acridin-9-yl)amino-5-(butylideneamino)phenylmethanol] | 0.35 (≈ 0.947 µM) | 0.93 (≈ 2.52 µM) | 0.36 (≈ 0.974 µM) | 5 | 0.90 (≈ 2.44 µM) | 0.89 (≈ 2.41 µM) |  |  |
| COc1cc(NC(=S)OCc2cc(N)cc(Nc3c4ccccc4nc4ccccc34)c2)cc(OC)c1 [Example 18, [3-(acridin-9-yl)amino-5-amino]benzyl N-(3,5-dimethoxyphenyl)thiocarbamate] |  |  |  | 3 |  |  |  |  |
| COc1cc(NC(=O)OCc2cc(N)cc(Nc3c4ccccc4nc4ccccc34)c2)cc(OC)c1 [Example 3, [3-(acridin-9-yl)amino-5-amino]benzyl N-(3,5-dimethoxyphenyl)carbamate] |  |  |  | 3 |  |  |  |  |
| COc1cc(NC(=O)OCc2cc(N)cc(Nc3c4ccccc4nc4ccccc34)c2)cc(OC)c1OC [Example 4, [3-(acridin-9-yl)amino-5-amino]benzyl N-(3,4,5-trimethoxyphenyl) carbamate] | 0.24 (≈ 0.458 µM) | 0.19 (≈ 0.362 µM) | 0.23 (≈ 0.438 µM) | 5 | 0.19 (≈ 0.362 µM) | 0.20 (≈ 0.381 µM) |  |  |
| CCC=Nc1cc(CO)cc(Nc2c3ccccc3nc3ccccc23)c1 [Example 36, 3-(acridin-9-yl)amino-5-(propylideneamino)phenylmethanol] |  |  |  | 3 |  |  |  |  |
